Data published in ChEMBL document CHEMBL4602633, “Discovery of coumarin-based selective aldehyde dehydrogenase 1A1 inhibitors with glucose metabolism improving activity” (Eur J Med Chem, 2020).
The source made the active and inactive calls. The rule behind the calls is not given here.

How the values were obtained:
[1] = Half life in […] plasma at 25 mg/kg, po measured over 12 hrs by LC-MS/MS analysis; type: ADME, organism-based
[2] = Cmax in […] plasma at 2.5 mg/kg, iv after 5 mins by LC-MS/MS analysis; type: ADME, organism-based; parameters: dose 2.5 mg/kg, route intravenous
HepG2 = test: Inhibition of palmitic acid-induced glucose consumption impairment in human HepG2 cells at 2 to 5 uM after 24 hrs; type: functional, cell-based
[3] = AUC in […] plasma at 25 mg/kg, po measured over 12 hrs by LC-MS/MS analysis; type: ADME, organism-based; parameters: time < 12 hr, dose 25 mg/kg, route oral
[4] = biological target: T1, Retinaldehyde dehydrogenase 3 (Homo sapiens) (UniProt P47895); test: Inhibition of recombinant N-terminal His6-tagged human ALDH1A3 (Met1 to Pro512 reisudes) expressed in Escherichia coli at 10 uM using propionaldehyde as substrate preincubated for 15 mins followed by substrate addition by spectrophotometric method relative to control
T1 sequence (whole entry): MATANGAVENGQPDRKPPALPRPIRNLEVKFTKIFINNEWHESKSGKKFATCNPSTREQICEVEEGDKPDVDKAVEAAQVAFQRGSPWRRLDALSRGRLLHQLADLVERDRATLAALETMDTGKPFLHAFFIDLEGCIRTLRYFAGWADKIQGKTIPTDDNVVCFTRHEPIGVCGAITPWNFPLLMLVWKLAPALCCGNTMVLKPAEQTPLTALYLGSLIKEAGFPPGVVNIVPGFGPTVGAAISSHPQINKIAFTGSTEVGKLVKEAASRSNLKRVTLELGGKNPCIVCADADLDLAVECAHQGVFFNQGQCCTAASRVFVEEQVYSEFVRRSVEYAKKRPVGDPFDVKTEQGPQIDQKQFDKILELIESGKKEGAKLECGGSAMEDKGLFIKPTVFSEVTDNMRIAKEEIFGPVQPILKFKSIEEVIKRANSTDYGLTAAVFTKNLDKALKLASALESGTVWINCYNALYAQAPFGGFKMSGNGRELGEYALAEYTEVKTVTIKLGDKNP

[5] = Half life in human liver microsomes at 2 ug/ml preincubated for 5 mins followed by NADPH addition and measured up to 45 mins by LC-MS/MS analysis; type: ADME, Microsome
[6] = Half life in […] plasma at 2.5 mg/kg, iv measured over 6 hrs by LC-MS/MS analysis; type: ADME, organism-based
[7] = biological target: T2, Aldehyde dehydrogenase, dimeric NADP-preferring (Homo sapiens) (UniProt P30838); test: Inhibition of recombinant C-terminal His6-tagged human ALDH3A1 (Met1 to His453 residues) expressed in mammalian expression system at 10 uM using benzaldehyde as substrate preincubated for 15 mins followed by substrate addition by spectrophotometric method relative to control
T2 sequence (whole entry): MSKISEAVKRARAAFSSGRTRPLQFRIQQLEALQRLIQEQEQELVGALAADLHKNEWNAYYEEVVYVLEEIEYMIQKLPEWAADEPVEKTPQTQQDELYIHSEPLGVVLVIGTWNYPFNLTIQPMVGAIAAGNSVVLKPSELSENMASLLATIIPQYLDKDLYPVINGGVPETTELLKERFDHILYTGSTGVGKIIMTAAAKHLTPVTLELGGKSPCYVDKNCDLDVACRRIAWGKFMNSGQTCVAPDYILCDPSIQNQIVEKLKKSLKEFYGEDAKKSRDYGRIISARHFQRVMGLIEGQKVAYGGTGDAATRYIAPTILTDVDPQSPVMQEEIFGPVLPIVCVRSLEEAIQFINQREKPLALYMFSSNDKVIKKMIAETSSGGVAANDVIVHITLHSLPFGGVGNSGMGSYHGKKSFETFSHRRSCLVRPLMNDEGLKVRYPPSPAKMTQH

[8] = biological target: T3, Retinal dehydrogenase 2 (Homo sapiens) (UniProt O94788); test: Inhibition of recombinant N-terminal His6-tagged human ALDH1A2 (Met1 to Ser518 residues) expressed in Escherichia coli at 10 uM using propionaldehyde as substrate preincubated for 15 mins followed by substrate addition by spectrophotometric method relative to control
T3 sequence (whole entry): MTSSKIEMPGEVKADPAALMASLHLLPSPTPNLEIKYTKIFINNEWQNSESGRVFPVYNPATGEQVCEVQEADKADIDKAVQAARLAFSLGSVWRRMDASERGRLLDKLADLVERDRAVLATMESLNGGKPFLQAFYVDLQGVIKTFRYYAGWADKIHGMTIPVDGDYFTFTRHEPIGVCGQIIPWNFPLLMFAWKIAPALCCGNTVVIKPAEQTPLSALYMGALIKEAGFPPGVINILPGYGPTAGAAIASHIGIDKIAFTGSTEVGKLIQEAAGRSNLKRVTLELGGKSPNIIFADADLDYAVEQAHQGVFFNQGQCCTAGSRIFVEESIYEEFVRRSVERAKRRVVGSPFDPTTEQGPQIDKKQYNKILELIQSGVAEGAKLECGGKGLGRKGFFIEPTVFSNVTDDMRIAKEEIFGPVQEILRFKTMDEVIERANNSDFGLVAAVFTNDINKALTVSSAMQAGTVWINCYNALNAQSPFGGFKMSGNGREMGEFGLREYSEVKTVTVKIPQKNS

[9] = Clearance in […] plasma at 2.5 mg/kg, iv measured over 6 hrs by LC-MS/MS analysis; type: ADME, organism-based
[10] = Cmax in […] plasma at 25 mg/kg, po measured over 12 hrs by LC-MS/MS analysis; type: ADME, organism-based; parameters: dose 25 mg/kg, route oral
[11] = Oral bioavailability in […] at 25 mg/kg measured over 12 hrs by LC-MS/MS analysis; type: ADME, organism-based; conditions: in vivo
[12] = biological target: T4, Aldehyde dehydrogenase 1A1 (Homo sapiens) (UniProt P00352); test: Inhibition of N-terminal Met/His6-tagged recombinant human ALDH1A1 (Ser2-Ser501 residues) expressed in Escherichia coli cells at 10 uM using propionaldehyde as substrate preincubated for 15 mins followed by substrate addition by spectrophotometric method relative to control
T4 sequence (whole entry): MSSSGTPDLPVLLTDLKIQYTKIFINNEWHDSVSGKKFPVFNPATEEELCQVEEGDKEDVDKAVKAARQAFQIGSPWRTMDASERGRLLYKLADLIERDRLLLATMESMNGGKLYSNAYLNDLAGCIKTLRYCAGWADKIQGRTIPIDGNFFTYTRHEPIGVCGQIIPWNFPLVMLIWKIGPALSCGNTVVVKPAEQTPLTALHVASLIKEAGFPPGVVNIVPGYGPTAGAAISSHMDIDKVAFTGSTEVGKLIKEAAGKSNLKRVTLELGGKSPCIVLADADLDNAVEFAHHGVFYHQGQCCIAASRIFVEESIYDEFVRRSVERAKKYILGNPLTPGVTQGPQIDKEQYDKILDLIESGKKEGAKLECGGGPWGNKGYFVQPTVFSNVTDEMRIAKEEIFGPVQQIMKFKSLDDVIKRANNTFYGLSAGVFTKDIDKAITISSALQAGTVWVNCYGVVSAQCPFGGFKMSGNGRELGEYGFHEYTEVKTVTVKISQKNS

[13] = AUC in […] plasma at 2.5 mg/kg, iv measured over 6 hrs by LC-MS/MS analysis; type: ADME, organism-based; parameters: time < 6 hr, dose 2.5 mg/kg, route intravenous
[14] = biological target: T5, Aldehyde dehydrogenase 1A1 (Homo sapiens, UniProt P00352); test: Inhibition of N-terminal Met/His6-tagged recombinant human ALDH1A1 (Ser2-Ser501 residues) expressed in Escherichia coli cells using propionaldehyde as substrate preincubated for 15 mins followed by substrate addition by spectrophotometric method
T5 sequence (P00352 whole entry): T4 sequence (whole entry)

[15] = Volume of distribution at steady state in […] plasma at 2.5 mg/kg, iv measured over 6 hrs by LC-MS/MS analysis; type: ADME, organism-based; conditions: read-out: Vdss
[16] = biological target: T6, Aldehyde dehydrogenase, mitochondrial (Homo sapiens) (UniProt P05091); test: Inhibition of recombinant human ALDH2 at 10 uM using propionaldehyde as substrate preincubated for 15 mins followed by substrate addition by spectrophotometric method relative to control
T6 sequence (whole entry): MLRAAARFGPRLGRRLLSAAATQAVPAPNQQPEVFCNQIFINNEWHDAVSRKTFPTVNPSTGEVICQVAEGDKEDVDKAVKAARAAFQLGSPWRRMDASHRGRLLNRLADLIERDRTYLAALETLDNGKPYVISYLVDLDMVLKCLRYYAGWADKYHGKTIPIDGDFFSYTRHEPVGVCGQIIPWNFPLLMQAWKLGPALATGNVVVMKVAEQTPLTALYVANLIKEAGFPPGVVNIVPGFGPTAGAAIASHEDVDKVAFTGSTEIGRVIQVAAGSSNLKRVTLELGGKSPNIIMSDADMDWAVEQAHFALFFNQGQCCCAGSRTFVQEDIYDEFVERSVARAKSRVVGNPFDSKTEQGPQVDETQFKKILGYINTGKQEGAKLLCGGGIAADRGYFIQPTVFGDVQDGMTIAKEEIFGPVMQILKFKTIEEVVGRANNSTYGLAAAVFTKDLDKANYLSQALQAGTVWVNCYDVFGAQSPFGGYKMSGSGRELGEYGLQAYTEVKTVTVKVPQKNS

## CCN(C(=O)CCN1CCN(C(=O)c2ccco2)CC1)c1ccc2c(C)cc(=O)oc2c1
[1]
  half-life: 108 min
[2]
  Cmax: 2840 ng/mL
HepG2
  inhibition: Active
[3]
  AUC at 12 h: 6470 ng·h/mL
[4]
  inhibition: 2.59%
[5]
  half-life at 2 ug/ml: 38.5 min
[6]
  half-life: 45.4 min
[7]
  inhibition: 1.89%
[8]
  inhibition: 2.13%
[9]
  clearance: 26.8 mL/min/kg
[10]
  Cmax: 3320 ng/mL
[11]
  bioavailability: 41.9%
[12]
  inhibition: 61.8%
[13]
  AUC at 6 h: 1540 ng·h/mL
[14]
  IC50: 3.87 µM
[15]
  Vd: 0.843 L/kg
[16]
  inhibition: 2.24%
